Patent US6979471B1, “Composition comprising pharmaceutical/nutraceutical agent and a bio-enhancer obtained from Glycyrrhiza glabra” (Council of Scientific and Industrial Research, priority 2000, dated 2005)

Experiments:
Type in all cases: cell-based
[1] = tested on: Candida albicans (ATCC 10231); experiment: Disc diffusion assay, antifungal agent against Candida albicans; settings: Candida albicans, ATCC10231; glycyrrhizin 1 μg/disc alone, clotrimazole 0
Description: (§1) • a) The minimum inhibitory concentration (MIC) of any antibiotic or drug molecule is determined against Escherichia coli (ATCC 10536), Bacillus subtilis (ATCC 6015) and Mycobacterium smegmatis (ATCC 14468) and Candida albicans (ATCC 10231) in broth and disc diffusion assays. • b) The antibiotics or antifungal agents at concentrations 1/10, ⅛, ⅙, ¼, ⅓, ½ and equal to MIC are added alone and in combination with the test compound at varying concentrations in broth assays to evaluate the comparative level of inhibition and similarly at varying concentrations in disc diffusion assay. • c) The combinations showing enhancement in terms of higher activity than antibiotic alone for the inhibition of bacterial growth (large inhibition zone in disc diffusion and higher killing at lower concentration in broth assay) are picked up for future testing. • d) In broth assays the activity is quantified by counting number of viable cells in a given treatment and converted in fold enhancement by the combination treatment compared to antibiotic/drug alone in the killing percentage of cells. • e) The pretreatment assay is followed to determine whether the bioenhancer which may be either an extract obtained from the plant Glycyrrhiza glabra, glycyrrhizin or glycyrrhizic acid, is required along with antibiotic to enhance its activity or even its withdrawal after treatment or prior to antibiotic treatment would benefit. […] Assay for Bio-Enhancement of Anti-Cancer Agents • a) MCF-7 (Breast cancer cell line is inoculated at a density of about 0.1×10^6 cells in MEM medium in the wells of 24 well plate. • b) The used up medium in these cultures is replaced with fresh medium after 18 hours in each well. • c) The test compound (s) is added at desired concentrations in different wells just after the medium replacement. • d) Observations are recorded on the cell count after 36 hours for which the following steps are required. • i. […] The number of viable cells is counted in 5 big squares and the reading is taken from 5 microscopic fields to determine the average. • viii. […]

[2] = tested on: MCF-7 (Breast cancer cell line); experiment: Assay for bio-enhancement of anti-cancer agents: viable cell count after 36 hours; settings: glycyrrhizin alone, without taxol; untreated control […] 10^−6
Description: (§2) For this, the cells are treated with the bioenhancer/compound for 4 to 8 hours and then washed free of it by centrifugation and washing in sterile water. […] 2. Assay for Bio-Enhancement of Anti-Cancer Agents • a) MCF-7 (Breast cancer cell line is inoculated at a density of about 0.1×10^6 cells in MEM medium in the wells of 24 well plate. • b) The used up medium in these cultures is replaced with fresh medium after 18 hours in each well. • c) The test compound (s) is added at desired concentrations in different wells just after the medium replacement. • d) Observations are recorded on the cell count after 36 hours for which the following steps are required. • i. The medium is removed from the wells. • ii. The wells are rinsed with 1 ml PBS (Phosphate buffer saline). • iii. To each well 500 μl of freshly prepared trypsin solution (0.1% in PBS) is added. • iv. Trypsin solution is removed after 30 seconds and the plate is gently tapped till the cells are released from the plate surface. • v. Fresh 1 ml of MEM growth medium is added and agitated with a pipette to obtain a cell suspension. • vi. 10 μl of cell suspension is taken on the haemocytometer and a cover glass is placed over the counting chamber. • vii. The number of viable cells is counted in 5 big squares and the reading is taken from 5 microscopic fields to determine the average. • viii. The cell count (titre per ml) in the original sample is then calculated as average count×10^3. Composition of Minimum Essential Medium (MEM): 100 ml

[3] = tested on: Escherichia coli, Bacillus subtilis and Mycobacterium smegmatis; experiment: Bacteria grown with glycyrrhizin alone; pretreatment assay
Description: For this, the cells are treated with the bioenhancer/compound for 4 to 8 hours and then washed free of it by centrifugation and washing in sterile water. […] The medium is removed from the wells. • ii. The wells are rinsed with 1 ml PBS (Phosphate buffer saline). • iii. To each well 500 μl of freshly prepared trypsin solution (0.1% in PBS) is added. • iv. Trypsin solution is removed after 30 seconds and the plate is gently tapped till the cells are released from the plate surface. • v. Fresh 1 ml of MEM growth medium is added and agitated with a pipette to obtain a cell suspension. • vi. 10 μl of cell suspension is taken on the haemocytometer and a cover glass is placed over the counting chamber. • vii. […] The cell count (titre per ml) in the original sample is then calculated as average count×10^3. Composition of Minimum Essential Medium (MEM): 100 ml In the next step of elucidation of the enhancer action the applicants experimented with the killing activities of different antibiotics against the bacteria singly and in combination with the test compound glycyrrhizin following the method described above. These experiments are to be considered with assay for bioenhancement of the compounds glycyrrhizin/glycyrrhizic acid and licorice, as described earlier. […]

[4] = tested on: Escherichia coli (ATCC 10536); experiment: Broth assay for bio-enhancement of antibiotics: viable cell count, Escherichia coli
[5] = tested on: Mycobacterium smegmatis (ATCC 14468); experiment: Broth assay for bio-enhancement of antibiotics: viable cell count, Mycobacterium smegmatis; settings: Table 3
Description: as §2
In the next step of elucidation of the enhancer action the applicants experimented with the killing activities of different antibiotics against the bacteria singly and in combination with the test compound glycyrrhizin following the method described above. These experiments are to be considered with assay for bioenhancement of the compounds glycyrrhizin/glycyrrhizic acid and licorice, as described earlier. […] In all the experiments the glycyrrhizin concentration was kept at 1 μg/ml, unless it is specifically mentioned.

Escherichia coli = experiment: Disc diffusion assay against Escherichia coli
Description: as §1

Mycobacterium smegmatis = experiment: Disc diffusion assay against Mycobacterium smegmatis
Description: as §1

**Q.** How did the zone of inhibition at 1 µg/disc [1] turn out when `CC1(C)[C@@H](O[C@H]2O[C@H](C(=O)O)[C@@H](O)[C@H](O)[C@H]2O[C@@H]2O[C@H](C(=O)O)[C@@H](O)[C@H](O)[C@H]2O)CC[C@]2(C)[C@H]3C(=O)C=C4[C@@H]5C[C@@](C)(C(=O)O)CC[C@]5(C)CC[C@@]4(C)[C@]3(C)CC[C@@H]12` [Glycyrrhizin] was run?
**A.** 0 mm

**Q.** What about the “Final titre of viable cells, without taxol, control (glycyrrhizin)” value [2] of the same molecule?
**A.** 0.12 × 10^−6 per ml

**Q.** And the “Enhancement of antibiotic potency after pretreatment of bacterial cells” value ([3]; cells pretreated with glycyrrhizin for 4–8 hours, washed free, then treated with antibiotics)?
**A.** the same results were observed

**Q.** And the “Killing of bacteria grown in presence of the compound as such” value ([3]; glycyrrhizin alone, no antibiotic)?
**A.** no significant killing

**Q.** How did the “Survival fraction of viable cells upon treatment with antibiotic alone (a)” value (“Survival fraction … (a)” below) ([4]; Table 1, antibiotic 10 μg/ml) turn out when `CO[C@H]1/C=C/O[C@@]2(C)Oc3c(C)c(O)c4c(O)c(c(/C=N/N5CCN(C)CC5)c(O)c4c3C2=O)NC(=O)/C(C)=C\C=C\[C@H](C)[C@H](O)[C@@H](C)[C@@H](O)[C@@H](C)[C@H](OC(C)=O)[C@@H]1C` [Rifampicin] was run?
**A.** 0.42

**Q.** And the “Survival fraction of viable cells upon treatment with antibiotic- glycyrrhizin combination (b)” value ([4]; Table 1, antibiotic 10 μg/ml + glycyrrhizin 1 μg/ml)?
**A.** 0.11

**Q.** And the “*Folds enhancement in antibiotic activity (a/b)” value (“*Folds enhancement” for short) ([4]; Table 1, antibiotic 10 μg/ml, glycyrrhizin 1 μg/ml)?
**A.** 3.8 folds

**Q.** What about the “Survival fraction … (a)” value ([4]; Table 1, antibiotic 20 μg/ml) of the same molecule?
**A.** 0.28

**Q.** And the “Survival fraction of viable cells upon treatment with antibiotic- glycyrrhizin combination (b)” value ([4]; Table 1, antibiotic 20 μg/ml + glycyrrhizin 1 μg/ml)?
**A.** 0.02

**Q.** And the “*Folds enhancement” value ([4]; Table 1, antibiotic 20 μg/ml, glycyrrhizin 1 μg/ml)?
**A.** 14.0 folds

**Q.** And the “Survival fraction of viable cells upon treatment with antibiotic glycyrrhizic acid combination (b)” value ([4]; Table 7, antibiotic 20 μg/ml + glycyrrhizic acid)?
**A.** 0.281

**Q.** And the “Survival fraction of viable cells upon treatment with antibiotic glycyrrhizic acid combination (b)” value ([4]; Table 7, antibiotic 20 μg/ml + glycyrrhizic acid, listed as rifampicin)?
**A.** about 0.281

**Q.** What about the “*Folds enhancement” value ([4]; Table 7, antibiotic 20 μg/ml, glycyrrhizic acid) of the same molecule?
**A.** 2.03 folds

**Q.** And the “Survival fraction … (a)” value ([4]; Table 10, antibiotic 10 μg/ml)?
**A.** 0.420

**Q.** And the “Survival fraction of viable cells upon treatment with antibiotic glycyrrhizic acid combination (b)” value ([4]; Table 10, antibiotic 10 μg/ml + licorice 25 μg/ml)?
**A.** 0.135

**Q.** And the “*Folds enhancement” value ([4]; Table 10, antibiotic 10 μg/ml, licorice 25 μg/ml)?
**A.** 3.10 folds

**Q.** What about the “Survival fraction … (a)” value ([5]; antibiotic 0.5 μg/ml) of the same molecule?
**A.** 0.56 × 10^−4

**Q.** What about the “Survival fraction of viable cells upon treatment with antibiotic- glycyrrhizin combination (b)” value ([5]; antibiotic 0.5 μg/ml + glycyrrhizin 1 μg/ml) of the same molecule?
**A.** 0.086 × 10^−4

**Q.** What about the “*Folds enhancement” value ([5]; antibiotic 0.5 μg/ml, glycyrrhizin 1 μg/ml) of the same molecule?
**A.** 6.5 folds

**Q.** And the zone of inhibition at 500 µg/disc (Escherichia coli; Escherichia coli, read-out: Net zone of inhibition)?
**A.** 2 mm

**Q.** What about the “Net zone of inhibition” value (Escherichia coli; rifampicin 500 μg/disc + glycyrrhizic acid 4 μg/disc) of the same molecule?
**A.** 3 mm

**Q.** What about the zone of inhibition at 0.4 µg/disc (Mycobacterium smegmatis; Mycolicibacterium smegmatis, read-out: Net zone of inhibition) of the same molecule?
**A.** 3 mm

**Q.** And the “Net zone of inhibition” value (Mycobacterium smegmatis; rifampicin 0.4 μg/disc + glycyrrhizic acid 4 μg/disc)?
**A.** 4 mm
